# Measurements published in patent US20100267637A1, “TREATMENT OF MELANOMA WITH ALPHA THYMOSIN PEPTIDES IN COMBINATION WITH A KINASE INHIBITOR” (SciClone Pharmaceuticals, Inc., priority 2007, published 2010).
# Where no end group is shown, it is not given here.
# System: murine B16 melanoma cells
# Experiment: Anti-tumor effect: tumor size / tumor volume in mice bearing subcutaneous B16 melanoma
# Assay type: in vivo, C57BL/6 mice
# Design: key to Tumor measurement L (length) / Tumor measurement W (width): The sign “—” indicates that tumor does not reach a measurable size
# Settings: for Tumor Volume (cm^3) (Mean ± SD): group mean; for PI (TV), percent inhibition of tumor volume: vs vehicle; for Tumor volumes on Day 15: Length × Width × Width/2
# Description: The toxic effects of the dosing regimens were also monitored. […] Meanwhile 9H10 was given in two groups via i.p. on Day 3, 6 and 9. […] Tumor volume and body weight were measured every three days, and tumor weights were measured on Day 16 at the end of the study.
# As per aseptic tissue culture procedures, one vial of B16 melanoma cells was removed from the liquid nitrogen stock, and placed into a 37° C. water bath. Gentle swirling was conducted until the content of the vial was thawed. Using tissue culture/sterile procedures, the cells were immediately centrifuged with a TD5A-WS centrifuge at 1000 rpm, 20-25° C., 5 min. After centrifugation, the cells were suspended in 0.1 to 0.5 mL normal saline (NS) and subcutaneously injected into 10 mice (0.1 mL/mouse, about 1×10^6 cells). After 7-10 days, when the tumor diameter was approximately 1 cm, the animals were euthanized with CO2 overdose and the tumors excised. The procedure was repeated with 20 mice to generate a sufficient number of B16 melanoma cells with adequate transplantability.
# On the day of tumor implantation, approximately 1×10^6 cells in 0.1 mL were subcutaneously injected on the right axillary area of each mouse. The day of tumor implantation was defined as Day 0.
# On Day 3, the animals were randomly assigned into nine different weight-matched and tumor-size-matched groups. Dosing was started on Day 3 using the regimen according to Table 2.
# From Day 1 to Day 15, mortality and moribundity were checked twice daily, the body weights were recorded once every 3 days, and tumors were measured using a caliper once every 3 days. At the end of the study (Day 16), the animals were euthanized by CO2 asphyxiation, and the tumors were excised and weighed.
# Based on the tumor size, the tumor volume (TV) was calculated with the formula: [TV=(Length×Width×Width)/2]. And the percent inhibition (PI) of TV (PITV) was calculated according to the equation below:
# PITV(%)=(TV vehicle−TVdrug treated)/TV vehicle×100
# Inter-group comparison was performed in terms of tumor volume, tumor weight and body weight, using a student's t test. P values of less than 0.05 were considered to be statistically significant.
substance,measurement,setting,value
"Thymosin Alpha-1 (Ac-SDAAVDTSSEITTKDLKEKKEVVEEAEN; ends and bridges not checked; UniProt P06454 2-29, looked up) [TA-1, 28 amino acid peptide, immunomodulator; test article (SciClone), 6 mg/kg s.c. daily]",Tumor measurement L (length),"Day 3, animal F1",—
same,Tumor measurement W (width),"Day 3, animal F1",—
same,Tumor volume,"Day 3, animal F1",0.0000 cm^3
same,Tumor measurement L (length),"Day 3, animal F2",—
same,Tumor measurement W (width),"Day 3, animal F2",—
same,Tumor volume,"Day 3, animal F2",0.0000 cm^3
same,Tumor measurement L (length),"Day 3, animal F3",—
same,Tumor measurement W (width),"Day 3, animal F3",—
same,Tumor volume,"Day 3, animal F3",0.0000 cm^3
same,Tumor measurement L (length),"Day 3, animal F4",0.10 cm
same,Tumor measurement W (width),"Day 3, animal F4",0.10 cm
same,Tumor volume,"Day 3, animal F4",0.0005 cm^3
same,Tumor measurement L (length),"Day 3, animal F5",—
same,Tumor measurement W (width),"Day 3, animal F5",—
same,Tumor volume,"Day 3, animal F5",0.0000 cm^3
same,Tumor measurement L (length),"Day 3, animal M1",—
same,Tumor measurement W (width),"Day 3, animal M1",—
same,Tumor volume,"Day 3, animal M1",0.0000 cm^3
same,Tumor measurement L (length),"Day 3, animal M2",—
same,Tumor measurement W (width),"Day 3, animal M2",—
same,Tumor volume,"Day 3, animal M2",0.0000 cm^3
same,Tumor measurement L (length),"Day 3, animal M3",—
same,Tumor measurement W (width),"Day 3, animal M3",—
same,Tumor volume,"Day 3, animal M3",0.0000 cm^3
same,Tumor measurement L (length),"Day 3, animal M4",—
same,Tumor measurement W (width),"Day 3, animal M4",—
same,Tumor volume,"Day 3, animal M4",0.0000 cm^3
same,Tumor measurement L (length),"Day 3, animal M5",—
same,Tumor measurement W (width),"Day 3, animal M5",—
same,Tumor volume,"Day 3, animal M5",0.0000 cm^3
same,Tumor Volume (cm^3) (Mean ± SD),Day 3,0.000 ± 0.0002 cm^3
same,"PI (TV), percent inhibition of tumor volume",Day 3,50.00%
same,Tumor measurement L (length),"Day 6, animal F1",—
same,Tumor measurement W (width),"Day 6, animal F1",—
same,Tumor volume,"Day 6, animal F1",0.0000 cm^3
same,Tumor measurement L (length),"Day 6, animal F2",—
same,Tumor measurement W (width),"Day 6, animal F2",—
same,Tumor volume,"Day 6, animal F2",0.0000 cm^3
same,Tumor measurement L (length),"Day 6, animal F3",—
same,Tumor measurement W (width),"Day 6, animal F3",—
same,Tumor volume,"Day 6, animal F3",0.0000 cm^3
same,Tumor measurement L (length),"Day 6, animal F4",—
same,Tumor measurement W (width),"Day 6, animal F4",—
same,Tumor volume,"Day 6, animal F4",0.0000 cm^3
same,Tumor measurement L (length),"Day 6, animal F5",—
same,Tumor measurement W (width),"Day 6, animal F5",—
same,Tumor volume,"Day 6, animal F5",0.0000 cm^3
same,Tumor measurement L (length),"Day 6, animal M1",—
same,Tumor measurement W (width),"Day 6, animal M1",—
same,Tumor volume,"Day 6, animal M1",0.0000 cm^3
same,Tumor measurement L (length),"Day 6, animal M2",—
same,Tumor measurement W (width),"Day 6, animal M2",—
same,Tumor volume,"Day 6, animal M2",0.0000 cm^3
same,Tumor measurement L (length),"Day 6, animal M3",—
same,Tumor measurement W (width),"Day 6, animal M3",—
same,Tumor volume,"Day 6, animal M3",0.0000 cm^3
same,Tumor measurement L (length),"Day 6, animal M4",—
same,Tumor measurement W (width),"Day 6, animal M4",—
same,Tumor volume,"Day 6, animal M4",0.0000 cm^3
same,Tumor measurement L (length),"Day 6, animal M5",—
same,Tumor measurement W (width),"Day 6, animal M5",—
same,Tumor volume,"Day 6, animal M5",0.0000 cm^3
same,Tumor Volume (cm^3) (Mean ± SD),Day 6,0.000 ± 0.0000 cm^3
same,"PI (TV), percent inhibition of tumor volume",Day 6,100.00%
same,Tumor measurement L (length),"Day 9, animal F1",0.10 cm
same,Tumor measurement W (width),"Day 9, animal F1",0.10 cm
same,Tumor volume,"Day 9, animal F1",0.0005 cm^3
same,Tumor measurement L (length),"Day 9, animal F2",0.10 cm
same,Tumor measurement W (width),"Day 9, animal F2",0.10 cm
same,Tumor volume,"Day 9, animal F2",0.0005 cm^3
same,Tumor measurement L (length),"Day 9, animal F3",0.10 cm
same,Tumor measurement W (width),"Day 9, animal F3",0.10 cm
same,Tumor volume,"Day 9, animal F3",0.0005 cm^3
same,Tumor measurement L (length),"Day 9, animal F4",0.20 cm
same,Tumor measurement W (width),"Day 9, animal F4",0.20 cm
same,Tumor volume,"Day 9, animal F4",0.0040 cm^3
same,Tumor volume,"Day 9, animal F5",0.0000 cm^3
same,Tumor measurement L (length),"Day 9, animal M1",0.10 cm
same,Tumor measurement W (width),"Day 9, animal M1",0.10 cm
same,Tumor volume,"Day 9, animal M1",0.0005 cm^3
same,Tumor measurement L (length),"Day 9, animal M2",0.20 cm
same,Tumor measurement W (width),"Day 9, animal M2",0.20 cm
same,Tumor volume,"Day 9, animal M2",0.0040 cm^3
same,Tumor measurement L (length),"Day 9, animal M3",0.50 cm
same,Tumor measurement W (width),"Day 9, animal M3",0.50 cm
same,Tumor volume,"Day 9, animal M3",0.0625 cm^3
same,Tumor measurement L (length),"Day 9, animal M4",0.20 cm
same,Tumor measurement W (width),"Day 9, animal M4",0.20 cm
same,Tumor volume,"Day 9, animal M4",0.0040 cm^3
same,Tumor measurement L (length),"Day 9, animal M5",0.30 cm
same,Tumor measurement W (width),"Day 9, animal M5",0.30 cm
same,Tumor volume,"Day 9, animal M5",0.0135 cm^3
same,Tumor Volume (cm^3) (Mean ± SD),Day 9,0.009 ± 0.0192 cm^3
same,"PI (TV), percent inhibition of tumor volume",Day 9,56.73%
same,Tumor volume,"Day 12, animal F1",0.0625 cm^3
same,"Tumor measurements on Day 12, L","Day 12, animal F1",0.50 cm
same,"Tumor measurements on Day 12, W","Day 12, animal F1",0.50 cm
same,Tumor volume,"Day 12, animal F2",0.0625 cm^3
same,"Tumor measurements on Day 12, L","Day 12, animal F2",0.50 cm
same,"Tumor measurements on Day 12, W","Day 12, animal F2",0.50 cm
same,Tumor volume,"Day 12, animal F3",0.0625 cm^3
same,"Tumor measurements on Day 12, L","Day 12, animal F3",0.50 cm
same,"Tumor measurements on Day 12, W","Day 12, animal F3",0.50 cm
same,Tumor volume,"Day 12, animal F4",0.1715 cm^3
same,"Tumor measurements on Day 12, L","Day 12, animal F4",0.70 cm
same,"Tumor measurements on Day 12, W","Day 12, animal F4",0.70 cm
same,Tumor volume,"Day 12, animal F5",0.0005 cm^3
same,"Tumor measurements on Day 12, L","Day 12, animal F5",0.10 cm
same,"Tumor measurements on Day 12, W","Day 12, animal F5",0.10 cm
same,Tumor volume,"Day 12, animal M1",0.0625 cm^3
same,"Tumor measurements on Day 12, L","Day 12, animal M1",0.50 cm
same,"Tumor measurements on Day 12, W","Day 12, animal M1",0.50 cm
same,Tumor volume,"Day 12, animal M2",0.1715 cm^3
same,"Tumor measurements on Day 12, L","Day 12, animal M2",0.70 cm
same,"Tumor measurements on Day 12, W","Day 12, animal M2",0.70 cm
same,Tumor volume,"Day 12, animal M3",0.3645 cm^3
same,"Tumor measurements on Day 12, L","Day 12, animal M3",0.90 cm
same,"Tumor measurements on Day 12, W","Day 12, animal M3",0.90 cm
same,Tumor volume,"Day 12, animal M4",0.0625 cm^3
same,"Tumor measurements on Day 12, L","Day 12, animal M4",0.50 cm
same,"Tumor measurements on Day 12, W","Day 12, animal M4",0.50 cm
same,Tumor volume,"Day 12, animal M5",0.3645 cm^3
same,"Tumor measurements on Day 12, L","Day 12, animal M5",0.90 cm
same,"Tumor measurements on Day 12, W","Day 12, animal M5",0.90 cm
same,Tumor Volume (cm^3) (Mean ± SD),Day 12,0.139 ± 0.1301 cm^3
same,"PI (TV), percent inhibition of tumor volume",Day 12,59.58%
same,"Tumor measurements on Day 15, L","Day 15, animal F1",0.70 cm
same,Tumor volumes on Day 15,"Day 15, animal F1",0.1715 cm^3
same,"Tumor measurements on Day 15, W","Day 15, animal F1",0.70 cm
same,"Tumor measurements on Day 15, L","Day 15, animal F2",0.70 cm
same,Tumor volumes on Day 15,"Day 15, animal F2",0.1260 cm^3
same,"Tumor measurements on Day 15, W","Day 15, animal F2",0.60 cm
same,"Tumor measurements on Day 15, L","Day 15, animal F3",0.60 cm
same,Tumor volumes on Day 15,"Day 15, animal F3",0.1080 cm^3
same,"Tumor measurements on Day 15, W","Day 15, animal F3",0.60 cm
same,"Tumor measurements on Day 15, L","Day 15, animal F4",1.00 cm
same,Tumor volumes on Day 15,"Day 15, animal F4",0.2450 cm^3
same,"Tumor measurements on Day 15, W","Day 15, animal F4",0.70 cm
same,"Tumor measurements on Day 15, L","Day 15, animal F5",0.30 cm
same,Tumor volumes on Day 15,"Day 15, animal F5",0.0135 cm^3
same,"Tumor measurements on Day 15, W","Day 15, animal F5",0.30 cm
same,"Tumor measurements on Day 15, L","Day 15, animal M1",0.70 cm
same,Tumor volumes on Day 15,"Day 15, animal M1",0.1715 cm^3
same,"Tumor measurements on Day 15, W","Day 15, animal M1",0.70 cm
same,"Tumor measurements on Day 15, L","Day 15, animal M2",1.00 cm
same,Tumor volumes on Day 15,"Day 15, animal M2",0.5000 cm^3
same,"Tumor measurements on Day 15, W","Day 15, animal M2",1.00 cm
same,"Tumor measurements on Day 15, L","Day 15, animal M3",1.00 cm
same,Tumor volumes on Day 15,"Day 15, animal M3",0.5000 cm^3
same,"Tumor measurements on Day 15, W","Day 15, animal M3",1.00 cm
same,"Tumor measurements on Day 15, L","Day 15, animal M4",1.00 cm
same,Tumor volumes on Day 15,"Day 15, animal M4",0.4050 cm^3
same,"Tumor measurements on Day 15, W","Day 15, animal M4",0.90 cm
same,"Tumor measurements on Day 15, L","Day 15, animal M5",1.00 cm
same,Tumor volumes on Day 15,"Day 15, animal M5",0.5000 cm^3
same,"Tumor measurements on Day 15, W","Day 15, animal M5",1.00 cm
same,Tumor Volume (cm^3) (Mean ± SD),Day 15,0.274 ± 0.1855 cm^3
same,"PI (TV), percent inhibition of tumor volume",Day 15,62.57%
same,effect on tumor growth in words,daily dosing Days 3-15,effective against the tumor growth
same,reduction of mean tumor volume in comparison to vehicle control,"throughout the course of the study, 6 mg/kg s.c. daily",50-60%
